This note sets out measurements from patent publication US20240216465A1, “METHOD FOR TREATING REFRACTORY BRAIN TUMOR” (National Yang Ming Chiao Tung University, priority 2023, published 2024).

One data set deals with Slug. The data set is described as follows: Western blot of Slug in GBM cells. The class given is cell-based, human. Conditions: MG132 10 μM 30 mins pretreatment, then GMI 0.6 μM 3 h. The procedure:
FIGS. 10A-10D show GMI induces Slug degradation in GBM cells. […] The mRNA level of Slug was measured using qPCR.
Cell extracts (30 μg) were then subjected to one-dimensional SDS-PAGE (8-12% separating gel) electrophoresis and were transferred to a PVDF membrane (0.22 μm, Millipore) by using a transfer apparatus (Bio-Rad, Richmond, CA). Membranes were blocked with 5% BSA in TBST buffer containing 0.05% Tween20. The expressions of proteins were identified by indicated antibodies. The expression of tubulin as an internal control. The indicated bands on the PVDF membrane were quantified using densitometry analysis by ImageJ software (National Institute of Mental Health, Bethesda, MD) and compared to results of the control group.

A short description of data set [1]: Rat weight and serum AST, ALT, BUN, creatinine in C6-bearing rats. Format: in vivo. Conditions: rat sera, TMZ 30 mg/kg ip. On the procedure: FIGS. 7A-7F show GMI combined with TMZ suppressed tumorigenesis in C6-bearing rats. FIG. 7A indicates Schematic design of the in vivo post combined therapy of GMI and TMZ in C6-bearing rats. The tumor volume in rat received GMI (0.6 mg/kg) and […]. […] FIG. 7C indicates the tumor volume was measured; each bar represents the mean+SD. […] FIGS. 7E and 7F show the AST and ALT (hepatic function: shown in FIG. 7E) as well as BUN and creatinine (renal function; shown in FIG. 7F) of rat sera were analyzed.
Five days after tumor implantation surgery, rats were randomly assigned into four group (6 animals/group) to be treated with different drugs every other day for 4 times, i.e. on day 5, 7, 9, 11. • Group 1 (control): intravenous administration of saline. • Group 2 (GMI): intravenous (iv) administration of GMI (0.6 mg/Kg) • Group 3 (TMZ): intraperitoneal (ip) administration of TMZ (30 mg/Kg) • Group 4 (GMI+TMZ): combination of GMI (iv, 0.6 mg/Kg) and TMZ (ip, 30 mg/Kg)
MRI imaging acquisition was performed on day 13 and a half of the animals in each group were sacrificed on day 15 for immunohistochemistry study. After tumor volume was measured, specimens from the animals in the histology group were subjected to other histological evaluations described as follows.

Where a SMILES comes first, the peptide text is derived from it. The star is where a group is joined. Cbz = O=C(OCc1ccccc1)*

In the case of `CC(C)C[C@@H](C=O)NC(=O)[C@H](CC(C)C)NC(=O)[C@H](CC(C)C)NC(=O)OCc1ccccc1` [MG132] (Cbz-Leu-Leu-Leu-aldehyde), the “GMI-induced Slug degradation” value with Slug is “counteracted GMI-induced Slug degradation”.
Regarding `Cn1nnc2c(C(N)=O)ncn2c1=O` [TMZ, Temozolomide], the AST/ALT result in data set [1] (GMI 0.6 mg/kg iv) is reported as “increased AST/ALT expression”. For the same molecule, in data set [1], the BUN result is “slightly increased BUN expression”.
